Laboratory results taken from patent US20150359884A1, “MULTI-PHOTON ISOMERISATION OF COMBRETASTATINS AND THEIR USE IN THERAPY” (priority 2011, published 2015).

Columns and labels:
[1] = Fluorescence lifetimes in solvents, two-photon excitation with TCSPC; assay type: physicochemical; conditions: 20° C., two-photon excitation 620-630 nm
Experimental: Fluorescence lifetimes were determined using 2PE at 630 nm with the microscope TCSPC setup (overall time response of 25 ps fwhm) and produced the results shown in Table 1. […] Characterisation of the spectroscopic properties of these latter two compounds remains to be investigated further. […] In the very viscous environment provided by glycerol the lifetime increases further to 1180 ps. In the range of alkanols studied the lifetime is closely correlated with solvent viscosity as shown in the inset to FIG. 3. […] However it is clear that the measured lifetime has the potential to report on cellular environments in FLIM studies. For E-CA4F similar trends are observed, but the overall differences in both lifetimes and quantum yields over the range of solvents are rather less than for E-CA4. The fluorescence lifetimes of E-CA4F are confined to a narrower range having values ranging from 440 ps in methanol through 740 ps in hexane to 1070 ps in glycerol. The more pronounced solvent dependence for E-CA4 no doubt reflects the more polar nature of the molecule compared with E-CA4F. The relative polarities may be judged from the partition coefficients (P) calculated according to the method of Brown et al..

[2] = Fluorescence quantum yields in solvents, UV one-photon excitation; assay type: physicochemical; conditions: 20° C., 290-300 nm excitation
Experimental: Absorption spectra were measured in either a Perkin Elmer Lambda 25 or 950 spectrophotometer. Fluorescence measurements were made with either a Spex Fluoromax or Varian Cary Eclipse spectrofluorimeter using the spectral correction curves supplied by the manufacturers. Fluorescence quantum yields with UV (one-photon) excitation were determined using either 2-aminopyridine (Φref 0.6 [7]) or 9-chloroanthracene (Φref 0.50 in dichloromethane, determined here relative to 9,10-diphenylanthracene in cyclohexane (Φref 0.97) and anthracene in ethanol (Φref 0.28 [8]) as standards. Fluorescence quantum yields were determined from the relative slopes of plots of integrated fluorescence intensity versus (1-10^−A) for samples having absorbance A≦0.1. The square of the refractive index (n^2) correction was applied when sample and reference compounds were in different solvents. Irradiation of the samples was minimized by the use of narrow excitation slits to reduce simultaneous photoisomerization.
The fluorescence quantum yields for E-CA4F were generally somewhat higher than for E-CA4.

[3] = Two-photon absorption cross section using reference fluorophore 9-chloroanthracene; assay type: physicochemical; conditions: at 620 nm, DCM
Description: Cell images were overlaid using Adobe Photoshop CS3.
Published cross sections for two photon absorption (σ2, the probability of an absorption process or photon interaction) typically show large variations depending on the method of measurement, using either the Z-scan method or a reference fluorophore, and the power range and pulse duration of the laser used for excitation. We have attempted to determine values of σ2 for E-CA4 and E-ACA4 using a reference fluorophore. 9-Chloroanthracene (9CIA) was selected as a standard fluorophore with an appropriate fluorescence spectrum and for which 2PE cross-sections are available. The values of σ2 at 620 nm for E-CA4 and E-CA4F in DCM were determined to be 2.1±0.5 and 2.75±0.6 GM units respectively. […] Values of σ2 at 620 nm for E-ACA and E-DMAC were both 5.7±1.2. These larger values may be consistent with some charge transfer character of the excitation of these compounds.

[4] = Observed solubility in water; assay type: physicochemical; conditions: aqueous solution, comparison in words
[5] = Isomerization by two-photon absorption at 590 nm in DMSO solution; assay type: physicochemical; conditions: Z-CA4 1 mM in DMSO, two-photon excitation 590 nm
Experimental: FIG. 11. […] (A) Power dependence of FI from E-CA4 (0.4 mM) versus laser power at the sample. (B) Percentage conversion of Z-CA4 to the E-isomer versus laser power at the sample, calculated from the measured FI from a solution of Z-CA4 (1 mM) and a series of calibration curves using solutions of E-CA4 at each laser power.
Using 2PE the photochemical effects occur within the femtolitre volume of excitation. […] At any one instant, the concentration of isomerized compound in the focal volume will represent a steady state achieved through the balance of diffusion from the focal volume and the rate of photochemical formation.
Calibration curves were constructed of FI versus E-CA4 concentration at each laser power. These were then compared with the FI from the two-photon experiment with Z-CA4 to estimate the concentration of E-CA4 formed within the focal volume.

[6] = Picosecond time-resolved infrared (TRIR) spectroscopy of excited states; assay type: physicochemical; conditions: dichloromethane, 266 nm excitation
Experimental: The ultrafast time-resolved infrared (TRIR) experiments were performed on the ‘ULTRA’ laser system at the Science and Technology Facilities Council Rutherford Appleton Laboratory. The capabilities of the ULTRA instrument are described in detail elsewhere. Briefly, a chirped pulse amplified titanium:sapphire laser operating at 10 kHz repetition rate produced 40-80 fs duration pulses at a wavelength of 800 nm. The UV excitation pulse was generated from third harmonic generation of the 800 nm output of the amplifier with ˜50 fs duration at 266 nm, irradiating samples with a 1 μJ, 100 μm diameter beam. The mid-IR probe pulse was generated using ˜0.4 mJ of the 800 nm femtosecond output to pump an optical parametric amplifier, and difference frequency mixing of the signal and idler components. The mid-IR probe output pulses had ˜500 cm-1 bandwidth and ˜50 fs pulse duration. The UV pulses were polarized at a magic angle to the IR probe laser polarization. The timing between the pump and probe was performed using a PCcontrolled optical delay line. The sample in solution was placed between two 25 mm diameter CaF2 plates in a rasterscanned Harrick cell to limit irradiation of the sample by multiple pulses. The optical path of the sample between the two windows was controlled using a 100 μm PTFE spacer and the solution flowed using a peristaltic pump. The intensity of the transmitted mid-IR light was dispersed by a grating onto a pair of 128-element mercury-cadmium telluride array detectors (IR Associates), providing full (i.e. ˜500 cm-1) spectral coverage with every laser pulse. The overall instrument response time was ˜200 fs. A reference spectrum of the laser pulse (before the Harrick cell) was accumulated on a third, 64-element array detector and was used to remove the effects of laser fluctuations from the transient absorption data. Ground-state FTIR spectra were recorded using a Nicolet Avatar 360 spectrometer.
FIGS. 12 and 13 show the TRIR spectra of both isomers of CA4 following ultrafast electronic excitation using 266 nm, with the ground-state FTIR spectra shown beneath the time resolved data for comparison. To date there has been little characterization of combretastatins by infrared spectroscopy. However, the ground-state FTIR spectra have obvious similarities with stilbene and on this basis we assign the 1586/1581 and 1510/1509 cm-1 bands in E-CA4/Z-CA4 to the v8a ring stretches of the phenyl groups and v19a ring stretch with additional contributions from C—H in-plane bending. In the excited state spectra, there are negative absorption bands corresponding to bleaching of the ground-state absorptions and both the E- and Z-isomers are dominated by transient bands between 1350 and 1500 cm-1. At early times the transient bands show rapid shifting over about 10 cm-1 to higher wavenumbers associated with rapid ‘cooling’ of excess vibrational energy following electronic excitation as commonly observed in other molecular systems including DNA [26] and for the C═C stretching band of E-stilbene observed by time-resolved resonance Raman spectroscopy. It is also notable that for E-CA4 at pump-probe delays up to 20 ps, the intensities of the transient bands increase and this is most likely due to molecular rearrangements taking place lowering the overall symmetry of the molecule and increasing the cross-sections of these IR active modes. […]

[7] = test system: cells; conditions: typical toxicity assays; cited from earlier work

Structure (SMILES)	Fluorescence lifetime τ ([1]; DMSO) [ns]	Fluorescence lifetime τ ([1]; EtOH, ne = non-exponential)	Fluorescence lifetime τ ([1]; Ethylene glycol, ne = non-exponential)	Fluorescence lifetime τ ([1]; Glycerol, ne = non-exponential)	Fluorescence lifetime τ ([1]; Hexane) [ns]	Fluorescence lifetime τ ([1]; MeCN, ne = non-exponential) [ns]	Fluorescence lifetime τ ([1]; MeOH, ne = non-exponential)	Fluorescence quantum yield φ ([2]; DCM)	Fluorescence quantum yield φ ([2]; DMSO)	Fluorescence quantum yield φ ([2]; Hexane)	Fluorescence quantum yield φ ([2]; MeCN)	Fluorescence quantum yield φ ([2]; MeOH)	Two photon absorption cross section σ2 [3] [GM units]	Solubility in water [4]	Concentration of E-CA4 formed within the focal volume [5]	Conversion of the initial concentration of Z-CA4 to the E-isomer [5] [%]	Excited state decay, longer lifetime (relaxed excited state) [6] [ps]	Excited state decay, shorter lifetime (biexponential fit) [6] [ps]	Concentrations required to kill cells [7]
COc1ccc(/C=C/c2cc(OC)c(OC)c(OC)c2)cc1N [E-ACA, (E)-1-(3′-Amino-4′-methoxyphenyl)-2-(3″,4″,5″-trimethoxyphenyl)ethene]	4.8	ne	ne	ne	1.65	3.6	ne	0.43	0.28	0.38	0.41	0.11	5.7±1.2	more soluble in water than the other combretastatins studied here					
COc1ccc(/C=C\c2cc(OC)c(OC)c(OC)c2)cc1O [Z-CA4, combretastatin A4, reference compound]															about 250 μM	25	10.1±0.71	1.5±0.15	nanomolar
